Experiments:
Assay type in all cases: in vivo, rat
IgE [1] = experiment: Ovalbumin-specific IgE ELISA of serum of immunised rats; details: pooled group serum
Description: (§1) Rats were injected with vaccine compositions comprising the ovalbumin antigen with and without di-oleoyl phosphatidyl serine, lyso-oleoyl phosphatidyl serine or stearoyl(X1)-arachidonoyl(X2) phosphatidyl serine and the concentrations of IgE, IgA and IgG are compared.
(§2) The animals were acclimatised for a period of 5 days prior to dosing. During the acclimatisation period animals were observed twice daily during the working week and once on each day during the weekend to evaluate the health status of the animals. Rats were then allocated to the following dose groups using computer-generated random order numbers.
(§3) On day 0, 20 μg of ovalbumin (OA) in phosphate buffered saline (PBS) with alhydrogel (AHG) adjuvant in a final volume of 0.5 mL was administered.
(§4) On days 21 and 42, 20 μg of ovalbumin (OA) in phosphate buffered saline (PBS) with the relevant test compound in a final volume of 0.5 ml was administered.
(§5) In each case, 0.5 mL of inoculum was injected subcutaneously into the scruff of the neck.
(§6) […] A blood sample was also taken from each animal on Days 15, 22, 29, 36, 43, 50, 57 and 64.
(§7) Serum was prepared by centrifugation of the blood sample at 2,500 rpm for 10 minutes and frozen at −20° C. The samples were then analysed by ELISA to establish the concentration of IgE, IgA and IgG1, IgG2a and IgG2b.
(§8) The purpose of an ELISA is to determine whether a particular protein is present in a sample and then enables quantification of how much is present. By coating the bottom of wells with ovalbumin (OVA) it is possible to bind anti-OVA specific antibodies. To detect only anti-OVA IgA antibodies anti-rat IgA conjugated to HRP was used as a secondary antibody. Quantification of specific antibodies in the rat sera samples was performed using antibody titrations. The data was reported as endpoint titers. Endpoint titers are defined as the last serum dilution giving an optical density value equal to twice the background optical density for the ELISA plate (buffer).

IgA [2] = experiment: Ovalbumin-specific IgA ELISA of serum of immunised rats; details: pooled group serum
Description: as §1, §2, §3, §4, §5
On Day 0 a pre-inoculation blood sample was taken. A blood sample was also taken from each animal on Days 15, 22, 29, 36, 43, 50, 57 and 64.
as §7, §8

IgG1 = experiment: Ovalbumin-specific IgG1 ELISA of serum of immunised rats; details: pooled group serum
Description: as §1, §2, §3, §4
(§9) In each case, 0.5 mL of inoculum was injected subcutaneously into the scruff of the neck. […]
as §7
as §8, with “To detect only anti-OVA IgA antibodies anti-rat IgA conjugated to HRP was used as a secondary antibody.” left out

IgG2a = experiment: Ovalbumin-specific IgG2a ELISA of serum of immunised rats; details: pooled group serum
Description: as §1, §2, §3, §4, §9, §7, §8

IgG2b = experiment: Ovalbumin-specific IgG2b ELISA of serum of immunised rats; details: pooled group serum
Description: as §1, §2, §3, §4, §5, §6, §7, §8

IgE [3] = experiment: Ovalbumin-specific IgE ELISA of serum of immunised rats; details: Day 1; 250 ug with 20 μg Ova s.c. on days 21 and 42; pooled group serum
IgA [4] = experiment: Ovalbumin-specific IgA ELISA of serum of immunised rats; details: Day 1; 50 ug with 20 μg Ova s.c. on days 21 and 42; pooled group serum
[5] = Day 1, 50 ug with 20 μg Ova s.c. on days 21 and 42
[6] = Day 15, 50 ug with 20 μg Ova s.c. on days 21 and 42
[7] = Day 15, 250 ug with 20 μg Ova s.c. on days 21 and 42
[8] = Day 22, 50 ug with 20 μg Ova s.c. on days 21 and 42
[9] = Day 22, 250 ug with 20 μg Ova s.c. on days 21 and 42
[10] = Day 29, 50 ug with 20 μg Ova s.c. on days 21 and 42
[11] = Day 29, 250 ug with 20 μg Ova s.c. on days 21 and 42
[12] = Day 36, 50 ug with 20 μg Ova s.c. on days 21 and 42
[13] = Day 36, 250 ug with 20 μg Ova s.c. on days 21 and 42
[14] = Day 43, 50 ug with 20 μg Ova s.c. on days 21 and 42
[15] = Day 43, 250 ug with 20 μg Ova s.c. on days 21 and 42
[16] = Day 50, 50 ug with 20 μg Ova s.c. on days 21 and 42
[17] = Day 50, 250 ug with 20 μg Ova s.c. on days 21 and 42
[18] = Day 57, 50 ug with 20 μg Ova s.c. on days 21 and 42
[19] = Day 57, 250 ug with 20 μg Ova s.c. on days 21 and 42
[20] = Day 64, 50 ug with 20 μg Ova s.c. on days 21 and 42
[21] = Day 64, 250 ug with 20 μg Ova s.c. on days 21 and 42
[22] = Day 1, 250 ug with 20 μg Ova s.c. on days 21 and 42

Structure (SMILES): CCCCC/C=C\C/C=C\C/C=C\C/C=C\CCCC(=O)O[C@H](COC(=O)CCCCCCCCCCCCCCCCC)COP(=O)(O)OC[C@H](N)C(=O)O [VT003, Stearoyl arachadonoyl phosphatidyl serine]
- IgE endpoint titer (IgE [1]; [5]): 0
- IgE endpoint titer (IgE [1]; [6]): 0
- IgE endpoint titer (IgE [1]; [7]): 0
- IgE endpoint titer (IgE [1]; [8]): 0
- IgE endpoint titer (IgE [1]; [9]): 0
- IgE endpoint titer (IgE [1]; [10]): 0
- IgE endpoint titer (IgE [1]; [11]): 0
- IgE endpoint titer (IgE [1]; [12]): 0
- IgE endpoint titer (IgE [1]; [13]): 0
- IgE endpoint titer (IgE [1]; [14]): 0
- IgE endpoint titer (IgE [1]; [15]): 0
- IgE endpoint titer (IgE [1]; [16]): 320
- IgE endpoint titer (IgE [1]; [17]): 80
- IgE endpoint titer (IgE [1]; [18]): 80
- IgE endpoint titer (IgE [1]; [19]): 40
- IgE endpoint titer (IgE [1]; [20]): 40
- IgE endpoint titer (IgE [1]; [21]): 20
- IgA endpoint titer (IgA [2]; [22]): 0
- IgA endpoint titer (IgA [2]; [6]): 0
- IgA endpoint titer (IgA [2]; [7]): 0
- IgA endpoint titer (IgA [2]; [8]): 0
- IgA endpoint titer (IgA [2]; [9]): 0
- IgA endpoint titer (IgA [2]; [10]): 40
- IgA endpoint titer (IgA [2]; [11]): 40
- IgA endpoint titer (IgA [2]; [12]): 640
- IgA endpoint titer (IgA [2]; [13]): 160
- IgA endpoint titer (IgA [2]; [14]): 640
- IgA endpoint titer (IgA [2]; [15]): 320
- IgA endpoint titer (IgA [2]; [16]): 1280
- IgA endpoint titer (IgA [2]; [17]): 640
- IgA endpoint titer (IgA [2]; [18]): 640
- IgA endpoint titer (IgA [2]; [19]): 640
- IgA endpoint titer (IgA [2]; [20]): 640
- IgA endpoint titer (IgA [2]; [21]): 1280
- IgG1 endpoint titer (IgG1; [5]): 0
- IgG1 endpoint titer (IgG1; [22]): 0
- IgG1 endpoint titer (IgG1; [6]): 320
- IgG1 endpoint titer (IgG1; [7]): 320
- IgG1 endpoint titer (IgG1; [8]): 2560
- IgG1 endpoint titer (IgG1; [9]): 2560
- IgG1 endpoint titer (IgG1; [10]): 20480
- IgG1 endpoint titer (IgG1; [11]): 20480
- IgG1 endpoint titer (IgG1; [12]): 20480
- IgG1 endpoint titer (IgG1; [13]): 20480
- IgG1 endpoint titer (IgG1; [14]): 20480
- IgG1 endpoint titer (IgG1; [15]): 10240
- IgG1 endpoint titer (IgG1; [16]): 20480
- IgG1 endpoint titer (IgG1; [17]): 10240
- IgG1 endpoint titer (IgG1; [18]): 10240
- IgG1 endpoint titer (IgG1; [19]): 10240
- IgG1 endpoint titer (IgG1; [20]): 40960
- IgG1 endpoint titer (IgG1; [21]): 20480
- IgG2a endpoint titer (IgG2a; [5]): 0
- IgG2a endpoint titer (IgG2a; [22]): 0
- IgG2a endpoint titer (IgG2a; [6]): 40
- IgG2a endpoint titer (IgG2a; [7]): 40
- IgG2a endpoint titer (IgG2a; [8]): 1280
- IgG2a endpoint titer (IgG2a; [9]): 1280
- IgG2a endpoint titer (IgG2a; [10]): 2560
- IgG2a endpoint titer (IgG2a; [11]): 2560
- IgG2a endpoint titer (IgG2a; [12]): 10240
- IgG2a endpoint titer (IgG2a; [13]): 5120
- IgG2a endpoint titer (IgG2a; [14]): 10240
- IgG2a endpoint titer (IgG2a; [15]): 5120
- IgG2a endpoint titer (IgG2a; [16]): 20480
- IgG2a endpoint titer (IgG2a; [17]): 20480
- IgG2a endpoint titer (IgG2a; [18]): 10240
- IgG2a endpoint titer (IgG2a; [19]): 10240
- IgG2a endpoint titer (IgG2a; [20]): 20480
- IgG2a endpoint titer (IgG2a; [21]): 20480
- IgG2b endpoint titer (IgG2b; [5]): 0
- IgG2b endpoint titer (IgG2b; [22]): 0
- IgG2b endpoint titer (IgG2b; [6]): 40
- IgG2b endpoint titer (IgG2b; [7]): 40
- IgG2b endpoint titer (IgG2b; [8]): 320
- IgG2b endpoint titer (IgG2b; [9]): 80
- IgG2b endpoint titer (IgG2b; [10]): 40
- IgG2b endpoint titer (IgG2b; [11]): 80
- IgG2b endpoint titer (IgG2b; [12]): 640
- IgG2b endpoint titer (IgG2b; [13]): 640
- IgG2b endpoint titer (IgG2b; [14]): 320
- IgG2b endpoint titer (IgG2b; [15]): 1280
- IgG2b endpoint titer (IgG2b; [16]): 160
- IgG2b endpoint titer (IgG2b; [17]): 320
- IgG2b endpoint titer (IgG2b; [18]): 640
- IgG2b endpoint titer (IgG2b; [19]): 1280
- IgG2b endpoint titer (IgG2b; [20]): 640
- IgG2b endpoint titer (IgG2b; [21]): 1280
- IgE endpoint titer (IgE [3]): 0
- IgA endpoint titer (IgA [4]): 0
